The results in this text go back to ChEMBL document CHEMBL1201862, “PubChem BioAssay data set” (2004).

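Dose response: 5 concentrations. Exposure: 48 h. Format: 96-well plates. Endpoint: linear interpolation; highest concentration if not reached. The concentration for 50% growth inhibition is given as GI50.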 Activity calls are given as the source filed them. Cut-off read from the data, not from the text of the source: active = GI50 up to about 1.1 µM and inactive = higher.

Test systems include RXF 393; CAKI-1; OVCAR-4; NCI-H226; K562; SR; HCT-15; MOLT-4; UACC-257; UO-31; SK-MEL-2; SK-MEL-5; SK-OV-3; OVCAR-8; SF-539; M14; NCI-H460; CCRF-CEM.
Experiment in all cases: NCI anticancer screen, dose series, 48 h

For the molecule `N#Cc1c2c(c(Cl)n3c1nc1ccccc13)CCCC2`, the GI50 with RXF 393 was 0.272 µM (active); in the test on CAKI-1, 2.76 µM (inactive); in the test with OVCAR-4, 4.35 µM (inactive); in the test with NCI-H226, 1.74 µM (inactive); in the test on K562, 2.5 µM (inactive); in the test on SR, 2.38 µM (inactive). Also, the GI50 was 3.21 µM with HCT-15; 3.89 µM (inactive) with MOLT-4; 2.05 µM (inactive) in the test on UACC-257; 3.06 µM (inactive) with UO-31; 2.8 µM (inactive) in the test on SK-MEL-2; 0.566 µM (active) in the test with SK-MEL-5. For the same molecule, the GI50 in the test on SK-OV-3 was 2.48 µM (inactive); with OVCAR-8 it was 2.57 µM (inactive); with SF-539, 3.95 µM (inactive); in the test with M14, 3.45 µM (inactive); in the test with NCI-H460, 1.69 µM (inactive).
Turning to `CN(C)CCNC(=O)c1ccc(Cl)c2c(Nc3ccc(S(=O)(=O)N=C(N)N)cc3)c3ccccc3nc12`, the GI50 was 4.66 µM (inactive) in the test on RXF 393; 1.87 µM (inactive) in the test with OVCAR-4; 2.08 µM (inactive) with NCI-H226; 2.77 µM (inactive) in the test with K562; 0.54 µM (active) with SR; 5.02 µM in the test with HCT-15. For the same molecule, the GI50 in the test with MOLT-4 was 0.358 µM (active); in the test on UO-31, 0.349 µM (active); in the test with SK-MEL-2 it was 9.75 µM (inactive); in the test on SK-MEL-5, 8.04 µM (inactive); in the test on OVCAR-8, 2.24 µM (inactive); in the test with SF-539 it was 3.81 µM (inactive). Further, the figures for the GI50 in the test with M14, in the test on NCI-H460 and in the test with CCRF-CEM were 7.38 µM (inactive), 1.63 µM (inactive) and 1.69 µM (inactive), respectively.
For `COc1ccc(CN2C(=O)C(Cc3cc(OC)c(OC)c(C)c3OC)NC(=O)/C2=C/c2cc(OC)c(OC)c(C)c2OC)cc1` (stereo not given), the GI50 in the test on RXF 393 is 25.8 µM (inactive); in the test on OVCAR-4 it was 30.6 µM (inactive); in the test on NCI-H226, 18.7 µM (inactive); with K562 it was 33 µM (inactive); in the test with SR it was 20.3 µM (inactive); in the test on MOLT-4 it was 24.8 µM (inactive). The GI50 was 37.5 µM (inactive) in the test with UACC-257; 23.4 µM (inactive) with UO-31; 19.3 µM (inactive) in the test with SK-MEL-2; 18 µM (inactive) in the test on SK-MEL-5; 34 µM (inactive) in the test with SK-OV-3; 32.1 µM (inactive) in the test on OVCAR-8. Moreover, the GI50 with SF-539 was 45.6 µM (inactive); in the test with M14 it was 32.1 µM (inactive); in the test with NCI-H460, 9.98 µM (inactive); in the test on CCRF-CEM, 27 µM (inactive).
For `CC1=CP(=O)(OC(C)C)CC(C)=C1Cl` (stereo not given), the GI50 was > 100 µM (inactive) with RXF 393; > 100 µM (inactive) with CAKI-1; > 100 µM (inactive) in the test with NCI-H226; > 100 µM (inactive) in the test with K562; 41.1 µM (inactive) with SR; 32.7 µM (inactive) with MOLT-4. Besides, the GI50 in the test on UACC-257, in the test on UO-31, in the test with SK-MEL-2, in the test on SK-MEL-5, with SK-OV-3 and in the test on OVCAR-8 was > 100 µM (inactive) in each case. For the same molecule, the GI50 with SF-539 was 95.1 µM (inactive); in the test on M14, 51.1 µM (inactive); with NCI-H460, > 100 µM (inactive); with CCRF-CEM, 34.4 µM (inactive).
Consider `COC(=O)C1=CC2C=CC(C1C(=O)OC)C1C(C(=O)OC)=C(C(=O)OC)C(C(=O)OC)=C(C(=O)OC)C21OC` (stereo not given), for which the GI50 is > 100 µM (inactive) in the test on RXF 393; > 100 µM (inactive) in the test on CAKI-1; > 100 µM (inactive) in the test on OVCAR-4; > 100 µM (inactive) in the test on NCI-H226; > 100 µM (inactive) in the test on SR; above 100 µM in the test on HCT-15. For the same molecule, the GI50 with MOLT-4, with UACC-257, in the test with UO-31, in the test on SK-MEL-2, in the test on SK-MEL-5 and in the test with SK-OV-3 was > 100 µM (inactive) in each case. For the same molecule, the GI50 with OVCAR-8, in the test with SF-539, in the test on M14 and in the test on NCI-H460 was > 100 µM (inactive) throughout.
